The values that follow come from patent US20170312253A1 (The Third Affiliated Hospital, Third Military Medical …, priority 2014, published 2017).

The target of one test is Aβ42 (Homo sapiens, UniProt P05067). In words: Thioflavin T fluorescence test, inhibition of Aβ aggregation. The test is classed as biochemical. The note with it: 10 μM Aβ 42, Edaravone 0-100 μM, 37° C., two days.
A further test concerns SH-SY5Y cells. The test is described as follows: Neurite growth detection, Aβ-treated SH-SY5Y cells. The test is classed as cell-based. As to conditions: 1 μM Aβ, 24 h. The protocol: The SH-SY5Y cell line was purchased from the Peking Union Hospital Cell Bank, cultured in a humidified incubator under 5% CO2 and 37° C., A MTT cell viability assay was performed according to the instructions in the kit (Sigma). […] The optical density values were determined at a wavelength of 563 nm (Synergy H4, Bio Tek). The neurite growth test was performed according to the method described in the prior documents (see, for example, Wang, Y. J., et al., Effects of proNGF on neuronal viability, neurite growth and amyloid-beta metabolism. Neurotox Res, 2010, 17(3): p. 257-67).

For test [1], the system named is APPswe/PS1DE9 (AD) transgenic mice. In words: Y-maze (spontaneous alternation and novel arm probe test). The test is classed as in vivo. The note with it: AD mice vs control group. The protocol: (§1) APPswe/PS1DE9 (AD) transgenic mice were purchased from Jackson Laboratory, USA (No. 005864), raised in the SPF grade animal house of The Third Affiliated Hospital of The Third Military Medical University. All the processes and correlated experiments applied to the mice were approved and filed with the Animal Ethics Committee of the Third Military Medical University. […] Alternatively, the daily dose for the prophylactic group may be 6.4 mg/kg, and the daily dose for the treatment group may be 12.8 mg/kg. Administration from 3-month old to 9-month old is the prophylactic test, and administration from 9-month old to 12-month old is the therapeutic test After reaching a stated time, the mice in each group received behavioral tests according to the method in the follows. Three mice in each group were taken for Golgi staining. The remaining mice were overly anaesthetized to receive brain anatomy. One side of the cerebral hemisphere was frozen and then for a biochemical analysis, and the other side of the cerebral hemisphere was fixed with 4% paraform for a histological analysis. All the mice in each group received behavioral tests, including a water maze, Y-maze and open field test. Water maze test includes four days of platform test and the subsequent probe test. The entire process was recorded by video, and analyzed with an image analysis software (ANY-maze, Stoelting). In the platform test, the escape path length and escape latency were measured and calculated. In the probe test, the time in each quadrant and the time across platform were measured. The spontaneous alternation test and novel arm probe test were carried out in the Y-maze. In the spontaneous alternation test, the mouse was free running In the maze for 5 min. Alternation is defined as entering the three arms connected with each other continuously. […] In the open field test, the mouse was put in the center of an open field for 3 min, and its path was recorded by a tracking system (Limelight, ActiMetrics). At the same time, the numbers of rearing, grooming, defecation and urination of the mouse were recorded.

The test system is the same in test [2]. In words: Open field test. It counts as in vivo. The note with it: AD mice vs control group. The protocol: as §1, with “The remaining mice were overly anaesthetized to receive brain anatomy. One side of the cerebral hemisphere was frozen and then for a biochemical analysis, and the other side of the cerebral hemisphere was fixed with 4% paraform for a histological analysis. All the mice in each group received behavioral tests, including a water maze, Y-maze and open field test. Water maze test includes four days of platform test and the subsequent probe test.” left out, “measured.” for “measured. The spontaneous alternation test and novel arm probe test were carried out in the Y-maze. In the spontaneous alternation test, the mouse was free running In the maze for 5 min. Alternation is defined as entering the three arms connected with each other continuously.”

For the next test, the system named is Aβ, CTFβ. In words: Western blot of Aβ and CTFβ in brain. It counts as in vivo. The note with it: AD mice. The protocol: APPswe/PS1DE9 (AD) transgenic mice were purchased from Jackson Laboratory, USA (No. 005864), raised in the SPF grade animal house of The Third Affiliated Hospital of The Third Military Medical University. All the processes and correlated experiments applied to the mice were approved and filed with the Animal Ethics Committee of the Third Military Medical University. […] Alternatively, the daily dose for the prophylactic group may be 6.4 mg/kg, and the daily dose for the treatment group may be 12.8 mg/kg. […]
The enzymes related with Aβ formation and degradation their molecule levels, the levels of hyperphosphprylated Tau proteins, and the levels of synaptic plasticity correlated proteins were all detected with Western blot. […] The blotting was detected with the following antibodies: APP C terminal antibody (171610, Millipore), BACE1 antibody (Millipore), Aβ antibody (6E10, Abcam), Nepriiysin antibody (Millipore), RAGE antibody (Millipore), LRP antibody (5A6, Calbiochem), IDE antibody (epitomics), phosphorylated Tau protein antibody, including pS396 (Signalway), pT231 (Signalway), pS199 (epitomics), pS262 (Abcam), SNAP25 antibody (Millipore), Synaptophysin antibody (Millipore), Synapsin I antibody (Millipore), VAMP1 antibody (Millipore), PSD95 antibody (Millipore), F-actin antibody (Actin) (Sigma-Aldrich). […]
Background: Immunoblotting shows a protein as a band on a membrane.

The target of the next test is T1, β-secretase (BACE1) (Mus musculus, UniProt P56818).
T1 construct: The proteins in the brain tissue homogenates were extracted with a RIP A buffer solution; from tissue; host or cells: brain of APPswe/PS1DE9 mice
T1 sequence (P56818 46-501): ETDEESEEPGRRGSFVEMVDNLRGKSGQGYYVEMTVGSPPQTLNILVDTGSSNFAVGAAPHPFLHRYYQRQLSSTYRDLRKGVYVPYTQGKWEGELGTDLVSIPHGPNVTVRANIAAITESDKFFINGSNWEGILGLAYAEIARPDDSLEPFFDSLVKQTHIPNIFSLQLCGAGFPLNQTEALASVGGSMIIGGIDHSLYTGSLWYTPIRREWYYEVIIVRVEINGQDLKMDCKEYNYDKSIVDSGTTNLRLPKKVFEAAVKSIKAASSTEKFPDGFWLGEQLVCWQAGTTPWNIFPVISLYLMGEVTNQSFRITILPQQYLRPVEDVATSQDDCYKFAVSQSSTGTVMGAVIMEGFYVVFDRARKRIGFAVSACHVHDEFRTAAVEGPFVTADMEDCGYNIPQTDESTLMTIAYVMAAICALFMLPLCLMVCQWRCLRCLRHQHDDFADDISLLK
In words: β-secretase activity in brain tissues (kit). The test is classed as in vivo. As to conditions: AD mice brain. The protocol:
(§2) APPswe/PS1DE9 (AD) transgenic mice were purchased from Jackson Laboratory, USA (No. 005864), raised in the SPF grade animal house of The Third Affiliated Hospital of The Third Military Medical University. All the processes and correlated experiments applied to the mice were approved and filed with the Animal Ethics Committee of the Third Military Medical University. […] Alternatively, the daily dose for the prophylactic group may be 6.4 mg/kg, and the daily dose for the treatment group may be 12.8 mg/kg. Administration from 3-month old to 9-month old is the prophylactic test, and administration from 9-month old to 12-month old is the therapeutic test After reaching a stated time, the mice in each group received behavioral tests according to the method in the follows. Three mice in each group were taken for Golgi staining. The remaining mice were overly anaesthetized to receive brain anatomy. One side of the cerebral hemisphere was frozen and then for a biochemical analysis, and the other side of the cerebral hemisphere was fixed with 4% paraform for a histological analysis.
After homogenating the frozen brain tissues, extraction was conducted with TBS, SDS and formic acid successively. The TBS, SDS and formic acid extracts represent soluble Aβ, loosen senile plaques and compact senile plaques, respectively. […]

The test system of another test is astrocyte. The test is described as follows: Astrocyte reaction immunostaining (GFAP). The test is classed as in vivo. As to conditions: AD mice. The protocol: as §2
Immunohistochemistry in the method of bleach section was carried out according to the previous steps. The primary antibodies were rabbit-anti-mouse CD45 antibody (for labelling microglias), rabbit-anti-mouse GFAP (for labelling astrocytes) and rabbit-anti-mouse pSer396-Tau antibody, respectively. […]

The test system of test [3] is ischemia-reperfused elderly rats. The note with it: cited from earlier work.

Chain of Aβ42 (P05067 672-713 limits assumed): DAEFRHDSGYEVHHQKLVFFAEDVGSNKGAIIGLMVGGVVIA

In the case of `CC1=NN(c2ccccc2)C(=O)C1` [Edaravone, 3-methyl-1-phenyl-2-pyrazolin-5-one], the “inhibition of Aβ aggregation (thioflavin T)” value against Aβ42 was “effectively inhibit Aβ aggregation in a dose-dependent manner”. For the same compound, in the test on SH-SY5Y cells, the “all-trans-Retinoic acid induced neurite length” value was “neurite length also increases”. Besides, in test [1], the Y-maze alternation proportion result is listed as “also significantly increased”, the Y-maze arm entry result is given as “significantly higher than in the control group” and the “Y-maze proportion of the novel arm entry” value was “significantly increased”. Besides, in test [2], the “open field probe distance” value is on record as “significantly higher than in the control group” and the open field rearings result is listed as “significantly higher than in the control group”. In the test with Aβ, CTFβ, the “formation of Aβ in the brain (Western blot)” value is “reduce the formation of Aβ in the brain” and the “formation of CTFβ (Western blot)” value is “decrease the formation of CTFβ”. Moreover, the “activity of β-secretase (BACE1)” value at β-secretase (BACE1) is “significant decrease”. Besides, the “astrocyte reaction level in the brain” value in the test with astrocyte (p.o.) was “significantly reduced, too”. Besides, the “astrocyte reaction in the brain” value in the test with astrocyte (prophylactic and therapeutic test) was “all reduced significantly”. Also, in test [3], the JNK-c-Jun pathway entry is reported as “suppress the JNK-c-Jun pathway”, the glutathione peroxidase activity entry is on record as “reduce the glutathione peroxidase activity” and the neuronal apoptosis result was “decrease the neuronal apoptosis”.
